Measurements taken from patent publication US11160871B2, “SSTR-targeted conjugates and particles and formulations thereof” (TARVEDA THERAPEUTICS, INC., priority 2015, dated 2021).
pKi: −log10 of the molar value. Like-named read-outs stand apart in the source and are kept apart here.

Legend:
[1] = test system: NCI-H524 human small cell lung cancer cells; test: cells; format: cell-based; settings: NCI-H524 proliferation
Method: Conjugates of the present invention were assessed in an in vitro assay evaluating inhibition of cell proliferation. NCI-H524 (ATCC) human small cell lung cancer cells were plated in 96 well, V-bottomed plates (Costar) at a concentration of 5,000 cells/well. 24 hours later, cells were treated with either conjugate for 2 hours and further incubated 70 hours, or for octreotide competition experiments, treated with 100 μM octreotide for 30 min, and then treated with conjugate for 2 hours, and further incubated for 70 hours. Conjugate starting dose was 20 μM and three fold serial dilutions were done for a total of ten points. After 2 hours of treatment, cells were spun down, the drug containing media was removed, and fresh complete medium was added and used to resuspend the cells, which were spun again. After removal of the wash media, the cells were resuspended in complete medium, and then transferred into white walled, flat bottomed 96 well plates. […] Proliferation was measured using CellTiter Glo reagent using the standard protocol (Promega) and a Glomax multi+ detection system (Promega). Percent proliferation inhibition was calculated using the following formula: % inhibition=(control−treatment)/control*100. Control is defined as vehicle alone. IC50 curves were generated using the nonlinear regression analysis (four parameter) with GraphPad Prism 6.

[2] = test system: passage 3 IMR-32 tumors; test: IMR-32 tumor model; format: in vivo, mice
Method: Further, mice bearing passage 3 IMR-32 tumors were dosed with Conjugate 57 either at 2.0 mg/kg or 1.5 mg/kg once a week for two weeks with a vehicle negative control. […] The 1.5 mpk group only lost an average of 2.0%. All mice recovered once dosing was complete.

[3] = Membrane permeability in Caco-2 monolayers; format: in vitro ADME; settings: human, Caco-2; Test Conc. 10 uM
Method: (§1) Membrane permeability of Conjugate 57 was measured in Caco-2 monolayers. The apparent permeability (Papp) was determined to be very low in both the apical to basolateral direction and the basolateral to apical direction.

[4] = test system: Caco-2 monolayers; test: Membrane permeability in Caco-2 monolayers; format: in vitro ADME; settings: Test Conc. 10 uM
Method: as §1

[5] = test system: HCC-33 (SCLC) xenografts; test: HCC-33 (SCLC) xenografts, tumor growth inhibition (Example 13); format: in vivo; settings: for TGI % Day 5 / TGI % Day 8 / TGI % Day 12 / TGI % Day 16 / TGI % Day 20 / TGI % Day 23 / TGI % Day 27 / TGI % Day 30: dosed on Day 1 and Day 8
Method: The efficacy of Conjugate 57 was studied with HCC-33 (SCLC) xenografts. Conjugate 57 was dosed on Day 1 and Day 8.

[6] = Plasma protein binding; format: in vitro ADME; settings: for fraction unbound at 1 uM: read-out: Free fraction at 1 uM (%); for fraction unbound at 10 uM: read-out: Free fraction at 10 uM (%)
Source text: Plasma protein binding is not concentration dependent and is consistent across species.

[7] = test system: IMR-32 cells; test: In vitro competitive assay in IMR-32 cells; format: cell-based; settings: absence of octreotide
Method: First, an in vitro competitive assay was conducted where IMR-32 cells were treated with Conjugate 57 in the absence or presence of an excess of octreotide. […] Pre-incubation with octreotide affected the inhibition.

[8] = target: SSTR3 (Homo sapiens, UniProt P32745); test: Radioligand-receptor binding assay, same method; settings: read-out: Conjugate 57 Ki
SSTR3, sequence (P32745 whole entry): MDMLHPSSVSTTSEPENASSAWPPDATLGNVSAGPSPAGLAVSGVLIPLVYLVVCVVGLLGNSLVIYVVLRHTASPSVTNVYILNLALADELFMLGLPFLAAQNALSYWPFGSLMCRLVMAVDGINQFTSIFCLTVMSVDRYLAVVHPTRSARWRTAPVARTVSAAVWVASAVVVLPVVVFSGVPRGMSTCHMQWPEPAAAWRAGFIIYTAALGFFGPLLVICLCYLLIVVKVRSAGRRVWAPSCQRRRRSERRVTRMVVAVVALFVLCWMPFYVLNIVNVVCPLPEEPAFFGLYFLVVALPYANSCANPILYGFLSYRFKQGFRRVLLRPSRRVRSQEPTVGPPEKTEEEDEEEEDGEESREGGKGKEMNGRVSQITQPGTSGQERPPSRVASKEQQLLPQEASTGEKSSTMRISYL
Method: (§2) Two conjugates were assessed in an in vitro assay evaluating binding to the somatostatin receptor 2 (SSTR2). A radioligand-receptor binding assay was conducted at Eurofins Panlabs (Taiwan) to determine the affinity of conjugates described herein to the SSTR2. The assay measures binding of radiolabeled ligand, [^125I] labeled somatostatin, to human SSTR2 using membrane preparations from SSTR2 expressing CHO-K1 cells. Membranes were incubated with radiolabeled somatostatin (0.03 nM) in the presence of conjugate/compound starting at a dose of 10 uM using 6× serial dilutions to obtain a 10-pt curve. After a four hour incubation, membranes were filtered and washed 3× and counted to determine the remaining[^125 I] somatostatin bound to the receptor. IC50 values were determined by a non-linear, least squares regression analysis using MathIQ™ (ID Business Solutions Ltd., UK). The Ki values were calculated using the equation of Cheng and Prusoff (Cheng and Prusoff, Biochem. Pharmacol. 22:3099-3108, 1973) using the observed IC50 of the tested conjugate/compound, the concentration of radioligand employed in the assay, and the historical values for the KD of the ligand obtained at Eurofins.
(§3) In another study, the binding of Conjugate 57 to the five SSTRs was measured with the same method. Conjugate 57 binds selectively and with high affinity to SSTR2.

[9] = target: SSTR4 (Homo sapiens, UniProt P31391); test: Radioligand-receptor binding assay, same method; settings: read-out: Conjugate 57 Ki
SSTR4, sequence (P31391 whole entry): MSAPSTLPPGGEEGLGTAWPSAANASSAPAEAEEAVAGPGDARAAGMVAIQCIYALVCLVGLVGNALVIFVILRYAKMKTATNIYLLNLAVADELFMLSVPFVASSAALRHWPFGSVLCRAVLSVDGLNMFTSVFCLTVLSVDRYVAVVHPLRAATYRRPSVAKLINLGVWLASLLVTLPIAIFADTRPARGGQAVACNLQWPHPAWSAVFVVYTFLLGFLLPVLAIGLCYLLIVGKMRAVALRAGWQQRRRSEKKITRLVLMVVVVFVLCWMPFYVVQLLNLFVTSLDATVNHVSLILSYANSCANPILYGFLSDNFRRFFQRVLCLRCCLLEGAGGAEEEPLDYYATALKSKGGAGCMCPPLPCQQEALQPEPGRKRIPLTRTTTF
Method: as §2, §3

[10] = target: SSTR1 (Homo sapiens, UniProt P30872); test: Radioligand-receptor binding assay, same method; settings: read-out: Conjugate 57 Ki
SSTR1, sequence (P30872 whole entry): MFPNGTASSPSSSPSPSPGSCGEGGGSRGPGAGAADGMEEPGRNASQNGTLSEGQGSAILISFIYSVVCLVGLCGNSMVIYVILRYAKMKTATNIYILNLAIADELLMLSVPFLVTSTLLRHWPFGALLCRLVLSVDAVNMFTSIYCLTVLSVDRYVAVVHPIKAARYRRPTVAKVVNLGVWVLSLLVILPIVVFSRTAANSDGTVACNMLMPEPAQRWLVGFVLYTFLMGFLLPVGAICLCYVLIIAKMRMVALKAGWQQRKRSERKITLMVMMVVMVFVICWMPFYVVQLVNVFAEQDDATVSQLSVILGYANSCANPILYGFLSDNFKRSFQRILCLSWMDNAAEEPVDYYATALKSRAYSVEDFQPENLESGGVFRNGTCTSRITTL
Method: as §2, §3

[11] = target: SSTR5 (Homo sapiens, UniProt P35346); test: Radioligand-receptor binding assay, same method; settings: read-out: Conjugate 57 Ki
SSTR5, sequence (P35346 whole entry): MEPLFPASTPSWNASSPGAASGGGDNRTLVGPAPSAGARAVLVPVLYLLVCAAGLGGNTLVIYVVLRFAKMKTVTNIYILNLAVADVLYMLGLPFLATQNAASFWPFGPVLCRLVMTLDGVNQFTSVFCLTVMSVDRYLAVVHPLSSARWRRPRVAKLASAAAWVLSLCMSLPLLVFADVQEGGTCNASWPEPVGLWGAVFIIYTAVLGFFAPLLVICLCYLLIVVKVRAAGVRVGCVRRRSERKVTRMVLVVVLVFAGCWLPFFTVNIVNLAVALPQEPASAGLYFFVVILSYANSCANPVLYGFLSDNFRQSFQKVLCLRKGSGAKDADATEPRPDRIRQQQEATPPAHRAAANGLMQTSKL
Method: as §2, §3

[12] = test system: NCI-H69 small cell lung cancer model; test: NCI-H69 model, comparison with standard of care combination; format: in vivo, rats; settings: Cycle 1 Day 1, Cycle 2 Day 8; Conjugate 57 one cycle at MTD (2 mg/kg), other doses equivalent
Method: In yet another study, single cycle of Conjugate 57 treatment was compared with two cycles of standard of care combination in NCI-H69 small cell lung cancer model. NCI-H69 bearing rats were treated with two cycles of cctreotide+DM1, one or two cycles of cisplatin+etoposide, one cycle of Conjugate 57. Cycle 1 was given on Day 1, Cycle 2 on Day 8. Rats were dosed with MTD (2 mg/kg) of Conjugate 57. Octreotide, DM1, cisplatin, and etoposide doses were equivalent to Conjugate 57.

[13] = both groups (2 mg/kg and 1 mg/kg)

Question: Which “difference in IC50 with or without octreotide competition” value [1] does the source give for COc1cc2cc(c1Cl)N(C)C(=O)C[C@H](OC(=O)[C@H](C)N(C)C(=O)CCSSC[C@H](NC(=O)[C@@H]1CSSC[C@H](NC(=O)[C@H](N)Cc3ccccc3)C(=O)N[C@@H](Cc3ccc(O)cc3)C(=O)N[C@H](Cc3c[nH]c4ccccc34)C(=O)N[C@@H](CCCCN)C(=O)N[C@@H]([C@@H](C)O)C(=O)N1)C(N)=O)[C@]1(C)O[C@H]1[C@H](C)[C@@H]1C[C@@](O)(NC(=O)O1)[C@H](OC)/C=C/C=C(\C)C2 [Conjugate 57] here?
Answer: 12.2 fold

Question: What about the “average body weight loss after the second dosing event” value ([2]; 2.0 mg/kg once a week for two weeks) of the same molecule?
Answer: 8.0%

Question: And the “mice showing complete regression” value ([2]; both treatment groups, 2.0 mg/kg or […] once a week for two weeks)?
Answer: 10 out of 10

Question: What about the Papp A→B at 10 uM [3] of the same molecule?
Answer: 0.018 ×10⁻⁶ cm/s

Question: What about the Papp B→A at 10 uM [3] of the same molecule?
Answer: 0.094 ×10⁻⁶ cm/s

Question: What about the “Mean A→B Papp” value [4] of the same molecule?
Answer: very low

Question: What about the “Mean B→A Papp” value [4] of the same molecule?
Answer: very low

Question: And the “TGI % Day 5” value ([5]; 1 mg/kg)?
Answer: 46.2%

Question: And the “TGI % Day 8” value ([5]; 1 mg/kg)?
Answer: 71.3%

Question: And the “TGI % Day 12” value ([5]; 1 mg/kg)?
Answer: 87.2%

Question: And the “TGI % Day 16” value ([5]; 1 mg/kg)?
Answer: 96.3%

Question: And the “TGI % Day 20” value ([5]; 1 mg/kg)?
Answer: 98.1%

Question: And the “TGI % Day 23” value ([5]; 1 mg/kg)?
Answer: 99.2%

Question: What about the “TGI % Day 27” value ([5]; 1 mg/kg) of the same molecule?
Answer: 99.6%

Question: What about the “TGI % Day 30” value ([5]; 1 mg/kg) of the same molecule?
Answer: 99.6%

Question: And the “TGI % Day 5” value ([5]; 2 mg/kg)?
Answer: 47%

Question: And the “TGI % Day 8” value ([5]; 2 mg/kg)?
Answer: 74.8%

Question: What about the “TGI % Day 12” value ([5]; 2 mg/kg) of the same molecule?
Answer: 88.2%

Question: And the “TGI % Day 16” value ([5]; 2 mg/kg)?
Answer: 96.2%

Question: And the “TGI % Day 20” value ([5]; 2 mg/kg)?
Answer: 98.3%

Question: What about the “TGI % Day 23” value ([5]; 2 mg/kg) of the same molecule?
Answer: 99.1%

Question: And the “TGI % Day 27” value ([5]; 2 mg/kg)?
Answer: 99.5%

Question: And the “TGI % Day 30” value ([5]; 2 mg/kg)?
Answer: 99.9%

Question: And the Body weights [5, 13]?
Answer: increased

Question: What about the Tumor regression [5, 13] of the same molecule?
Answer: ~100%

Question: What about the fraction unbound at 1 uM ([6]; Dog plasma) of the same molecule?
Answer: 0.044

Question: What about the fraction unbound at 10 uM ([6]; Dog plasma) of the same molecule?
Answer: 0.033

Question: What about the fraction unbound at 1 uM ([6]; Human plasma) of the same molecule?
Answer: 0.078

Question: What about the fraction unbound at 10 uM ([6]; Human plasma) of the same molecule?
Answer: 0.078

Question: And the fraction unbound at 1 uM ([6]; Mouse plasma)?
Answer: 0.082

Question: What about the fraction unbound at 10 uM ([6]; Mouse plasma) of the same molecule?
Answer: 0.094

Question: And the fraction unbound at 1 uM ([6]; Rat plasma)?
Answer: 0.063

Question: And the fraction unbound at 10 uM ([6]; Rat plasma)?
Answer: 0.074

Question: And the “growth of IMR-32 cells” value [7]?
Answer: inhibited the growth of IMR-32 cells

Question: What about the pKi [8] of the same molecule?
Answer: 7.70

Question: And the pKi [9]?
Answer: 5.26

Question: And the pKi [10]?
Answer: 6.51

Question: What about the pKi [11] of the same molecule?
Answer: 8.02

Question: And the “tumor response (tumor volume)” value [12]?
Answer: complete regression
